Laboratory results published in ChEMBL document CHEMBL5291721, “A preclinical secondary pharmacology resource illuminates target-adverse drug reaction associations of marketed drugs” (Nat Commun, 2023).

Legend:
[1] = target: 3',5'-cyclic-AMP phosphodiesterase 4A (Homo sapiens, UniProt P27815); assay type: functional
Cannabinoid receptor 1 = Cannabinoid receptor 1 (Homo sapiens, UniProt P21554); assay type: functional, cell-based
[2] = target: T1, Muscarinic acetylcholine receptor M2 (Homo sapiens, UniProt P08172); assay type: functional, cell-based
T1 sequence (P08172 whole entry): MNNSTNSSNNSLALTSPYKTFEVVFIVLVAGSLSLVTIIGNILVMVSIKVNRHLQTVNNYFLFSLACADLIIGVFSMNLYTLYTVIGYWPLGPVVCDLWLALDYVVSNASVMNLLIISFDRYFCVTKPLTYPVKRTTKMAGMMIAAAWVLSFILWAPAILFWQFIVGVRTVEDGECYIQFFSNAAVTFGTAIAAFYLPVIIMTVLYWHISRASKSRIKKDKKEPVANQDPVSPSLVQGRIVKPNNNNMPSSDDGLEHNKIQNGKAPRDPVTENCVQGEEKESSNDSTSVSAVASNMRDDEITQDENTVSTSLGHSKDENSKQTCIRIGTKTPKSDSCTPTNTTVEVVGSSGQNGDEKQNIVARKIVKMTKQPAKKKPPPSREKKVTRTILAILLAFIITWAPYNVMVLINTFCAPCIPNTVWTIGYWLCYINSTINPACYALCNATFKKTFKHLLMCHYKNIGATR

Estrogen receptor = target: T2, Estrogen receptor (Homo sapiens, UniProt P03372)
T2 sequence (P03372 whole entry): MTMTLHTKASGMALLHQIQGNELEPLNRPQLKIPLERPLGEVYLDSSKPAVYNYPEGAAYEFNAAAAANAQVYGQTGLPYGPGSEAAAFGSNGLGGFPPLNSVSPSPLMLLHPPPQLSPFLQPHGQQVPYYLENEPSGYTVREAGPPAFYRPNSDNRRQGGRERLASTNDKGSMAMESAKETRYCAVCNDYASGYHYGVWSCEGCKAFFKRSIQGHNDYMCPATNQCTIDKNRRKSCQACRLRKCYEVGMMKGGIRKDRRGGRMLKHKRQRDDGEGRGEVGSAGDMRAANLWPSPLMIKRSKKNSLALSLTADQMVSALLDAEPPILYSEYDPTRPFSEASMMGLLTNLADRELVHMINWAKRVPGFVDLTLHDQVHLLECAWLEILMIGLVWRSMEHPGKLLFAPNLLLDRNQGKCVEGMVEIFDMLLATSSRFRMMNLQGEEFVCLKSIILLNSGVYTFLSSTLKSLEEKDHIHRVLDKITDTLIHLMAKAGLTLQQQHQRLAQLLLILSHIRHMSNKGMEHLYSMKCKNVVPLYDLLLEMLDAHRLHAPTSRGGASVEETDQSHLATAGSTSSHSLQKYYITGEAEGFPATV

[3] = target: 5-hydroxytryptamine receptor 2A (Homo sapiens, UniProt P28223); assay type: functional, cell-based
Thromboxane A2 receptor = target: T3, Thromboxane A2 receptor (Homo sapiens, UniProt P21731)
T3 sequence (P21731 whole entry): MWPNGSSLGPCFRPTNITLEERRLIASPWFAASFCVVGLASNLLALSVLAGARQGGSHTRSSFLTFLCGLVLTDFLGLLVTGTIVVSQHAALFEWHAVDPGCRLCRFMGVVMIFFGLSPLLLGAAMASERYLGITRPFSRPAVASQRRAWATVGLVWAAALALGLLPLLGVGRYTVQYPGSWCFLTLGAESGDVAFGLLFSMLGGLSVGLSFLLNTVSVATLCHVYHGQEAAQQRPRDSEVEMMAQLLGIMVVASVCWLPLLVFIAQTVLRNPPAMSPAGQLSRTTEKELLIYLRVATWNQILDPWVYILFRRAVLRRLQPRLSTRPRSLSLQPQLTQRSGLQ

[4] = target: T4, Alpha-1A adrenergic receptor (Homo sapiens, UniProt P35348)
T4 sequence (P35348 whole entry): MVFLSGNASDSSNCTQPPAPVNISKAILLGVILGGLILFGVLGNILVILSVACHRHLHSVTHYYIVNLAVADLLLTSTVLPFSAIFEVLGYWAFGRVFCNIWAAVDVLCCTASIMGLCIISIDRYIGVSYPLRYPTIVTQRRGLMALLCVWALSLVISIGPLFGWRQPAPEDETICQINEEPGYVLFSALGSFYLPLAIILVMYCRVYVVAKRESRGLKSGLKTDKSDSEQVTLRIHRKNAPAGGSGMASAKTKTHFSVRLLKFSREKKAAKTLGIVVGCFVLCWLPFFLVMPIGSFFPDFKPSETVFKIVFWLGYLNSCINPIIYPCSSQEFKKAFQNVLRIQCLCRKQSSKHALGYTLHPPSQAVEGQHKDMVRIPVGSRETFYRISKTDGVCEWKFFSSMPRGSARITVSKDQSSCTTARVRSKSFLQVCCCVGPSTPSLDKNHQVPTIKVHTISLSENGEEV

[5] = target: Beta-2 adrenergic receptor (Homo sapiens, UniProt P07550)
[6] = target: T4, Alpha-1A adrenergic receptor; assay type: functional, cell-based
Note: assay procedure not described here.

3',5'-cyclic-AMP phosphodiesterase 4A, sequence (P27815 whole entry): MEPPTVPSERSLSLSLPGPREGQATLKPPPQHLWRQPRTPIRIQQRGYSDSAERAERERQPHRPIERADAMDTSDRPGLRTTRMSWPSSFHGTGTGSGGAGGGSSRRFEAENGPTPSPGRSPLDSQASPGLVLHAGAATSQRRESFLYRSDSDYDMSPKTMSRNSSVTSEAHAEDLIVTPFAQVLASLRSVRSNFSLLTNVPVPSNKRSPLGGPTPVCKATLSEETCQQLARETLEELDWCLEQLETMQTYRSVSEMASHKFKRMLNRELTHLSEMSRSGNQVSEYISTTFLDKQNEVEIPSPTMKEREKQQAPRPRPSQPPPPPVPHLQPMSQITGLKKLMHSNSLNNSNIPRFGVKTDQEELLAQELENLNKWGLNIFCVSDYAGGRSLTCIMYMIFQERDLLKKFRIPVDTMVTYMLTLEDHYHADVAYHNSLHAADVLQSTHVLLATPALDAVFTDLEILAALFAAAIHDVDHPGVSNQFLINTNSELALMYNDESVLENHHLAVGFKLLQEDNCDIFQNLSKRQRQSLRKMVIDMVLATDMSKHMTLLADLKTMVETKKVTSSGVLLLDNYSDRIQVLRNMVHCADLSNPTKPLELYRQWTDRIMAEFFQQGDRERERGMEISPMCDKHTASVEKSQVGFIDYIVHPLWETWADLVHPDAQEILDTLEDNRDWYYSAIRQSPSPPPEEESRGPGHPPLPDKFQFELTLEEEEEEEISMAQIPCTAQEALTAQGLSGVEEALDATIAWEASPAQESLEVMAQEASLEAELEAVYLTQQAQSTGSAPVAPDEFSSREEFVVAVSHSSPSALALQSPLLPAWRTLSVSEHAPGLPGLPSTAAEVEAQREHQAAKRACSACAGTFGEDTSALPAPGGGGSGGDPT
Beta-2 adrenergic receptor, sequence (P07550 whole entry): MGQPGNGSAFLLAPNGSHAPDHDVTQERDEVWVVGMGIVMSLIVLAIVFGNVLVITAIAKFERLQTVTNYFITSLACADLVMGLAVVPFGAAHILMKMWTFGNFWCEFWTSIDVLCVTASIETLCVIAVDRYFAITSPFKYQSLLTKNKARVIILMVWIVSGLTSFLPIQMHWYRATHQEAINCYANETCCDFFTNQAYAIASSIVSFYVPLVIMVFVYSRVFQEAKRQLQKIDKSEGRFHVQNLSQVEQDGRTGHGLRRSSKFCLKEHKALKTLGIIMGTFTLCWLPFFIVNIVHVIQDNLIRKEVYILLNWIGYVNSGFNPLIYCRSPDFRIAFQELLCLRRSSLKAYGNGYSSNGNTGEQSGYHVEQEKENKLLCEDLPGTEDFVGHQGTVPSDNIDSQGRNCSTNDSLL
Cannabinoid receptor 1, sequence (P21554 whole entry): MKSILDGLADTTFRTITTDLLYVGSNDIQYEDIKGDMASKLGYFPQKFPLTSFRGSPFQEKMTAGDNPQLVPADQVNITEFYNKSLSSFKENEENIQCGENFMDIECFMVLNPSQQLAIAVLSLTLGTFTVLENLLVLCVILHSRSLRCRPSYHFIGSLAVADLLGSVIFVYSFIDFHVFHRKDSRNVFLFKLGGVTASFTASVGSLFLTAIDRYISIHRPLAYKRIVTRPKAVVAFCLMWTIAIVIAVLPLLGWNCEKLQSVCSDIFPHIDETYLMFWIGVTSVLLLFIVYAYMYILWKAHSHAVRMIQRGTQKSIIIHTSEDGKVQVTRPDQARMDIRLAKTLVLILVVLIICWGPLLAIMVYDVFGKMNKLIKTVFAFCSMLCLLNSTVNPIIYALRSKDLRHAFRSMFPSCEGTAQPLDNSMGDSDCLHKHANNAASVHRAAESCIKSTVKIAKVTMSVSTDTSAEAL
5-hydroxytryptamine receptor 2A, sequence (P28223 whole entry): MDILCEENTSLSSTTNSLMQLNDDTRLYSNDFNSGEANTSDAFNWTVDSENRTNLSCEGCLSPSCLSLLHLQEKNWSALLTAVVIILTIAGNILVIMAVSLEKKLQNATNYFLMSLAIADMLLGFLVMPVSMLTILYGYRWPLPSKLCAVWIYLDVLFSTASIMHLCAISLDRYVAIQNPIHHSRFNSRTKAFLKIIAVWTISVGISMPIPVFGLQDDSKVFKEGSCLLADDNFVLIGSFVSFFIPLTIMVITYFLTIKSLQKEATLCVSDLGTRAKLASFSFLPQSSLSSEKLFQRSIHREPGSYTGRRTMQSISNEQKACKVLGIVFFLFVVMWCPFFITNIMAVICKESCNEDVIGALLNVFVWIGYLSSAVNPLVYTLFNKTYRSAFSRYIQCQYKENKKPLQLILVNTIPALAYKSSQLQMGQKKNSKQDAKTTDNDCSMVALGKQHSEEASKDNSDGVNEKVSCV

| SMILES | AC50 [1] | AC50 (Cannabinoid receptor 1) | AC50 [2] | AC50 (Estrogen receptor) | AC50 [3] | AC50 (Thromboxane A2 receptor) | AC50 [4] | AC50 [5] | AC50 [6] |
| --- | --- | --- | --- | --- | --- | --- | --- | --- | --- |
| C#CCN(C)Cc1ccccc1 [PARGYLINE] | > 30 µM | > 30 µM | > 30 µM | > 30 µM | > 30 µM |  |  |  |  |
| CCN(CC)CCn1c(=O)c(Cc2ccc(OC)cc2)nc2ccccc21 [CAROVERINE] |  | > 30 µM | > 30 µM |  | 9.7 µM | > 30 µM | 8.9 µM | > 30 µM |  |
| CCCCCCO[C@@H](C)c1cccc(-c2csc(NC(=O)c3cc(Cl)c(/C=C(\C)C(=O)O)c(Cl)c3)n2)c1OC [LUSUTROMBOPAG] | 16.2 µM |  |  | 2.91 µM |  |  |  |  | > 30 µM |
| C[C@]12CC[C@@H]3c4ccc(OC(=O)N(CCCl)CCCl)cc4CC[C@H]3[C@@H]1CC[C@@H]2OP(=O)(O)O [ESTRAMUSTINE PHOSPHATE] | > 30 µM |  |  | 2.03 µM |  |  |  |  | > 30 µM |
| CC[N+](CC)(CCNC(=O)C(=O)NCC[N+](CC)(CC)Cc1ccccc1Cl)Cc1ccccc1Cl [AMBENONIUM] |  | > 30 µM | > 30 µM |  | > 30 µM | > 30 µM |  |  |  |
| CC(C)/N=c1\cc2n(-c3ccc(Cl)cc3)c3ccccc3nc-2cc1Nc1ccc(Cl)cc1 [CLOFAZIMINE] |  | > 30 µM | > 30 µM |  | > 30 µM | > 30 µM |  | > 30 µM |  |
| NCCCCCC(=O)O [AMINOCAPROIC ACID] |  |  | > 10 µM |  |  | > 10 µM | > 10 µM | > 10 µM |  |
| C=CCOc1ccc(CC(=O)O)cc1Cl [ALCLOFENAC] | > 30 µM |  |  | > 30 µM |  |  |  |  | > 30 µM |
| CCN(CCO)CCCC(C)Nc1ccnc2cc(Cl)ccc12 (stereo unspecified) [HYDROXYCHLOROQUINE] |  |  | > 10 µM |  |  | > 10 µM | > 10 µM | > 10 µM |  |
| NCCCNCCSP(=O)(O)O [AMIFOSTINE] |  | > 30 µM | > 30 µM |  |  | > 30 µM |  | > 30 µM |  |
| CC(C)C[C@H](NC(=O)[C@H](Cc1ccccc1)NC(=O)c1cnccn1)B(O)O [BORTEZOMIB] |  |  | > 30 µM |  | > 30 µM | > 30 µM | > 30 µM | > 30 µM |  |
| CC(=O)SCC(Cc1ccccc1)C(=O)NCC(=O)OCc1ccccc1 (stereo unspecified) [RACECADOTRIL] |  | 17 µM | > 30 µM |  | > 30 µM | > 30 µM | > 10 µM | > 10 µM |  |
| OCCOCCN1CCN(C(c2ccccc2)c2ccc(Cl)cc2)CC1 (stereo unspecified) [HYDROXYZINE] |  | > 30 µM | > 10 µM |  | 6 µM | > 30 µM | 1.66 µM | > 10 µM |  |
| OC[C@H]1NC[C@H](O)[C@@H](O)[C@H]1O | > 30 µM |  |  | > 30 µM |  |  |  |  | > 30 µM |
| C[C@@H](CN1CC(=O)NC(=O)C1)N1CC(=O)NC(=O)C1 [DEXRAZOXANE] | > 30 µM |  |  | > 30 µM |  |  |  |  | > 30 µM |
| COc1cccc2c1C(=O)c1c(O)c3c(c(O)c1C2=O)C[C@@](O)(C(=O)CO)C[C@@H]3O[C@H]1C[C@H](N)[C@H](O[C@@H]2CCCCO2)[C@H](C)O1 [PIRARUBICIN] | > 30 µM |  |  | > 30 µM |  |  |  |  | > 1 µM |
| CC(C)NCC(O)COc1ccc(CC(N)=O)cc1 (stereo unspecified) [ATENOLOL] |  |  |  |  |  | > 30 µM |  |  |  |
| C[C@H](Cn1cnc2c(N)ncnc21)OCP(=O)(O)O [TENOFOVIR ANHYDROUS] |  |  | > 30 µM |  | > 30 µM | > 30 µM |  | > 30 µM |  |
| C=CC1=C(C(=O)O)N2C(=O)[C@@H](NC(=O)/C(=N\O)c3csc(N)n3)[C@H]2SC1 |  | > 30 µM | > 10 µM |  | > 30 µM | > 30 µM | > 10 µM | > 30 µM |  |

| SMILES | AC50 [1] | AC50 (Cannabinoid receptor 1) | AC50 [2] | AC50 (Estrogen receptor) | AC50 [3] | AC50 (Thromboxane A2 receptor) | AC50 [4] | AC50 [5] | AC50 [6] |
| --- | --- | --- | --- | --- | --- | --- | --- | --- | --- |
| CCOC(=O)Nc1ccc(NCc2ccc(F)cc2)nc1N [FLUPIRTINE] |  | > 30 µM | > 30 µM |  | > 10 µM | 29 µM |  | > 30 µM |  |
| CO[C@@]1(NC(=O)C(C(=O)O)c2ccc(O)cc2)C(=O)N2C(C(=O)O)=C(CSc3nnnn3C)CO[C@@H]21 (stereo partly specified) [MOXALACTAM] | > 30 µM |  |  | > 30 µM |  |  |  |  | > 30 µM |
| C[C@H](CS)C(=O)N1CCC[C@H]1C(=O)O [CAPTOPRIL] |  |  | > 10 µM |  |  |  | > 10 µM | > 10 µM |  |
| CNC1(C)C2CCC(C2)C1(C)C (stereo unspecified) [MECAMYLAMINE] |  |  | > 10 µM |  | > 10 µM | > 10 µM | > 10 µM | > 10 µM |  |
| O=NN(CCCl)C(=O)NC1CCCCC1 [LOMUSTINE] | 25.7 µM |  |  |  |  |  |  |  | 14.1 µM |
| N=C(N)NCC1COc2ccccc2O1 (stereo unspecified) [GUANOXAN] | > 30 µM |  |  | > 30 µM |  |  |  |  | > 30 µM |
| O=C(O)COC(=O)Cc1ccccc1Nc1c(Cl)cccc1Cl [ACECLOFENAC] |  | > 30 µM | > 10 µM |  |  | 2.54 µM | > 10 µM | > 10 µM |  |
| CCOc1ccccc1OCCN[C@H](C)Cc1ccc(OC)c(S(N)(=O)=O)c1 [TAMSULOSIN] |  |  | > 10 µM |  | > 30 µM | > 30 µM |  | 2.2 µM |  |
| COC(=O)CCc1ccc(OCC(O)CNC(C)C)cc1 (stereo unspecified) [ESMOLOL] |  |  | > 30 µM |  |  | > 30 µM | > 30 µM | 27 µM |  |
| CCC1(c2ccccc2)C(=O)NCNC1=O [PRIMIDONE] |  |  | > 10 µM |  |  | > 10 µM | > 10 µM | > 10 µM |  |
| CN1CCC(N(Cc2cccs2)c2ccccc2)CC1 [THENALIDINE] | > 30 µM |  |  | > 30 µM |  |  |  |  | > 30 µM |
| Cc1cc(C)cc(OCC2CNC(=O)O2)c1 (stereo unspecified) [METAXALONE] | > 30 µM |  |  | > 30 µM |  |  |  |  | > 30 µM |
| CCCCCCCCCCCCCCCC(=O)OC[C@H](COP(=O)([O-])OCC[N+](C)(C)C)OC(=O)CCCCCCCCCCCCCCC [COLFOSCERIL PALMITATE] | > 30 µM |  |  | > 30 µM |  |  |  |  | > 30 µM |
| O=c1[nH]cc(F)c(=O)[nH]1 [FLUOROURACIL] | > 30 µM |  |  |  |  |  |  |  | > 30 µM |
| O=C(c1ccccc1)c1ccc2n1CCC2C(=O)O (stereo unspecified) [KETOROLAC] |  |  | > 30 µM |  |  | > 10 µM | > 10 µM | > 10 µM |  |
| O=C(Cc1cccs1)N[C@@H]1C(=O)N2C(C(=O)[O-])=C(C[n+]3ccccc3)CS[C@H]12 [CEPHALORIDINE] | > 3 µM | > 30 µM | > 30 µM | > 30 µM | > 30 µM |  |  |  |  |
| CN(C)CCc1c[nH]c2ccc(CS(=O)(=O)N3CCCC3)cc12 [ALMOTRIPTAN] |  | > 30 µM | > 30 µM |  | > 30 µM |  |  |  |  |
| C[C@]12CCC(=O)C=C1CC[C@H]1[C@@H]3CC[C@](O)(C(=O)CO)[C@@]3(C)C[C@H](O)[C@@]12F [FLUDROCORTISONE] |  | > 30 µM | > 30 µM |  | > 30 µM | > 30 µM | > 10 µM | > 10 µM |  |
| O=C(O)[C@@H](S)[C@@H](S)C(=O)O | > 30 µM |  |  |  |  |  |  |  |  |
